“Also recorded” adds a separate entry of the source.
Columns and labels:
platelets = assay: Platelet count, Sysmex cell counter; assay type: cell-based, human; settings: 100 μM compound, 5 Joules/cm^2, Day 5; FIGS. 21A-24A
Experimental: Samples were diluted 1:3 in blood bank saline.

[1] = tested on: Chinese hamster ovary (CHO) cells; assay: In vitro genotoxicity screen in CHO cells; settings: approximately 3 hours exposure in the dark
Description: In such studies, cells are exposed to chemicals with and/or without rat S-9 metabolic activation system (S-9) and are later examined for either cell survival (for a genotoxicity screen) or for changes in chromosome structure (for a chromosome aberration assay).
Chinese hamster ovary (CHO; ATCC CCL 61 CHO-K1, proline-requiring) cells were used for the in vitro genotoxicity and chromosomal aberration tests. CHO cells are used extensively for cytogenic testing because they have a relatively low number of chromosomes (2n=20) and a rapid rate of multiplication (˜12 to 14 hours, depending on culture conditions). The cells were grown in an atmosphere of 5% CO2 at approximately 37° C. in McCoy's 5a medium with 15% fetal bovine serum (FBS), 2 mM L-glutamine, and 1% penicillin-streptomycin solution to maintain exponential growth. This medium was also used during exposure of the cells to the test compound when no S-9 was used. Cell cultures were maintained and cell exposures were performed in T-75 or T-25 flasks.
Each of the sample compounds were tested at seven dilutions, 1, 3, 10, 33, 100, 333, and 1000 μg/ml. […]
After approximately 2.5 hours in colchicine, the cells were harvested. […] The cell density and metaphase quality on the initial slide from each flask was monitored using a phase-contrast microscope; at least two slides of appropriate cell density were prepared from each flask. […]

[2] = tested on: Duck Hepatitis B Virus (DHBV); assay: Inactivation of Duck Hepatitis B Virus in platelet concentrate, read by PCR amplification; assay type: biochemical; settings: 5 J/cm^2 UVA
Experimental: DHBV in duck yolk was added to platelet concentrate (PC) to a final concentration of 2×10^7 particles per mL and mixed by gentle rocking for ≧15 min. […] Samples, including controls without added psoralen, were irradiated with 5 J/cm^2 UVA, with mixing at 1 J/cm^2 increments. After irradiation, leukocytes and platelets were separated from virus by centrifugation. The supernatant containing DHBV was digested overnight with 50 μg/mL proteinase K in a buffer containing 0.5% sodium dodecyl sulphate, 20 mM Tris buffer, pH 8.0, and 5 mM EDTA at 55° C. Samples were extracted with phenol-chloroform and chloroform, followed by ethanol precipitation. Purified DNA was then used in PCR amplification reactions with a starting input of 10^6 DHBV genomes from each sample. […] The amplification was followed by a 7 min incubation at 72° C. to yield full length products. [[…]-^32P] dCTP was added at an amount of […] in order to detect and quantify the resulting products. Products were separated by electrophoresis on denaturing polyacrylamide slab gels and counted. The absence of signal in a given reaction was taken to indicate effective inactivation of DHBV.

[3] = tested on: H9 cells chronically infected with HIVIIIB; assay: Inactivation of cell-associated HIV in platelet concentrate, HIV microplaque assay; assay type: cell-based; settings: for log inactivation of HIV, dark control: 150 μM psoralen, no UVA; for logs of HIV inactivated: 150 μM, 3 Joules/cm^2, cell-associated HIV in platelet concentrate
Experimental: H9 cells chronically infected with HIVIIIB were used. (H9/HTLV-III-B NIH 1983 Cat.#400). Cultures of these cells were maintained in high glucose Dulbecco Modified Eagle Medium supplemented with 2 mM L-glutamine, 200 u/mL penicillin, 200 μg/ml streptomycin, and 9% fetal bovine serum (Intergen Company, Purchase, N.Y.) For maintenance, the culture was split once a week, to a density of 3×10^5 to 4×10^5 cells/ml and about four days after splitting, 3.3% sodium bicarbonate was added as needed. For the inactivation procedure, the cells were used three days after they were split. They were pelleted from their culture medium at 400 g×10 minutes, the supernatant was discarded, and the cells were resuspended in one to five day old human platelet concentrate (PC) (pH 7.5-6.5), to a concentration of 2×10^6 cells/ml. Aliquots of the PC-infected cell suspension were made for psoralen free dark controls, for psoralen free UVA only controls, for psoralen dark controls, and for the psoralen plus UVA experimental sample. Concentrated filter-sterilized stock solutions of each psoralen in water were diluted into the appropriate aliquots to yield a final concentration of 150 μM. […] After an equilibration period of thirty minutes at room temperature, 0.5 ml of each of the dark controls was placed in a cryovial and stored in the dark at −80° C. For UVA illumination, 8 ml of the psoralen free aliquot and 8 ml of each psoralen containing aliquot were introduced into a modified Fl 20 Teflon™ bag (modified to be 92 cm^2 total surface area, The West Co., Phoenixvill, Pa.) via a plastic disposable 10 ml syringe attached to one of the polypropylne ports on the bag. This gave an average path length of 0.17 cm. The bags were then illuminated for a total exposure of 3 Joules/cm^2 in the device described in Example 1, above, attached to a circulating refrigerating water bath set at 4° C., which maintains the temperature in the bag at approximately 22-25° C. During exposure, the device was shaken on a platelet shaker (Helmer Labs, Noblesville, Ind.). After exposure, the contents of the bags were withdrawn by a fresh syringe through the remaining unused port on the bag, and placed in cryovials for storage in the dark at −80° C. until analysis.
The stored samples were thawed at 37° C., then titrated in an HIV microplaque assay, as described in Hanson, C. […] Clot removal from each sample was performed before plating.

[4] = S-59 concentration by HPLC before and after illumination and RD treatment (Table Q); assay type: physicochemical
Experimental: Two ABO-matched single donor PCs containing 2−5×10^11 platelets in approximately 300 mL of 35% plasma and 65% PAS III were pooled and redivided into two identical units in PL 2410 Plastic containers (Baxter). One unit (the control) was immediately placed on a platelet shaker and stored at approximately 22° C. The other unit (the test) was treated with 150 μM S-59 and 3 Joules/cm^2 UVA. After treatment, the platelets suspension was transferred into a second PL 2410 Plastic container containing a RD. Contact between platelets and the RD occurred for a period of approximately 8 hours, then the platelet suspension was transferred to a new PL 2410 Plastic container for storage. The time of blood donation was defined as day 0. Treatment with S-59, UVA (320-400 nm), and the RD was performed on day 1. Six replicate experiments were carried out, each with a different pool of two ABO-matched single-donor platelet concentrates.
To evaluate the efficacy of the RD for reducing the concentration of S-59, platelet samples from the test unit were analyzed for S-59 content by HPLC. Samples before illumination, after 3 Joules/cm^2 of illumination, and immediately following the 8-hour RD treatment were analyzed.

SMILES | platelet count, treated against controls (in words) (platelets) | concentration at which the compound was genotoxic (toxic dose) [1] [µg/mL] | log inactivation of HIV, dark control [3] [logs] | logs of HIV inactivated [3] [logs] | other results
Cc1oc2c(C)c3oc(=O)cc(C)c3cc2c1CNCCCCN [Compound 6, 4′-(6-amino-2-aza)hexyl-4,5′,8-trimethylpsoralen] | higher platelet count than samples treated with light alone; also recorded: counts equivalent to the 5 day control | 100 | – | – | –
Cc1oc2c(C)c3oc(=O)cc(C)c3cc2c1CN [AMT, 4′-Aminomethyl-4,5′,8-trimethylpsoralen, reference compound] | – | 30 | – | – | PCR of the 1072 bp DHBV amplicon ([2]; 35 mM final concentration (so in the source)): a signal could be detected; PCR of the 1072 bp DHBV amplicon ([2]; 70 and 100 mM levels (so in the source)): inhibited PCR amplification
Cc1cc(=O)oc2c(C)c3oc(COCCN)c(C)c3cc12 [Compound 18, 5′-(4-amino-2-oxa)butyl-4,4′,8-trimethylpsoralen] | higher platelet count than samples treated with light alone | – | 0 | > 7.2 | –
Cc1oc2c(C)c3oc(=O)cc(C)c3cc2c1COCCN [Compound 2, 4′-(4-amino-2-oxa)butyl-4,5′,8-trimethylpsoralen] | – | – | 0 | > 6.7 | PCR of the 1072 bp DHBV amplicon ([2]; all concentrations (35, 70, and 100 mM as printed), platelet concentrate): complete inhibition of PCR; PCR of the smaller DHBV amplicons (127 bp, 327 bp) compared with AMT ([2]; same concentrations): inhibited PCR of the smaller amplicons better than did AMT; initial S-59 concentration in a platelet concentrate ([4]; 0 Joule/cm^2, HPLC): approximately 145±10 μM; μM S-59 ([4]; Post Treatment With An RD (8 Hours)): 0.27 ± 0.05 µM; μM S-59 ([4]; Pre-Treatment (0 Joule/cm^2), platelet concentrate): 145 ± 10 µM; initial S-59 remaining unreacted ([4]; after 3 Joule/cm^2 of illumination): 20.5%±2.3%

From US6544727B1, “Methods and devices for the removal of psoralens from blood products” (Cerus Corporation, priority 1995, dated 2003)
